The source made the active and inactive calls. Rule as the data show it: actives have a measured IC50 and inactives only a lower limit.

In the assay the target is Envelope glycoprotein gp160 (Human immunodeficiency virus 1, UniProt Q6QLK5). Nature of the assay: cell-free HIV fusion peptide-binding blockers – biochemical, uHTS, fluorescence dequenching, […] (AID 1986).
Sequence of Envelope glycoprotein gp160 (Q6QLK5 whole entry, the tested form may be a part): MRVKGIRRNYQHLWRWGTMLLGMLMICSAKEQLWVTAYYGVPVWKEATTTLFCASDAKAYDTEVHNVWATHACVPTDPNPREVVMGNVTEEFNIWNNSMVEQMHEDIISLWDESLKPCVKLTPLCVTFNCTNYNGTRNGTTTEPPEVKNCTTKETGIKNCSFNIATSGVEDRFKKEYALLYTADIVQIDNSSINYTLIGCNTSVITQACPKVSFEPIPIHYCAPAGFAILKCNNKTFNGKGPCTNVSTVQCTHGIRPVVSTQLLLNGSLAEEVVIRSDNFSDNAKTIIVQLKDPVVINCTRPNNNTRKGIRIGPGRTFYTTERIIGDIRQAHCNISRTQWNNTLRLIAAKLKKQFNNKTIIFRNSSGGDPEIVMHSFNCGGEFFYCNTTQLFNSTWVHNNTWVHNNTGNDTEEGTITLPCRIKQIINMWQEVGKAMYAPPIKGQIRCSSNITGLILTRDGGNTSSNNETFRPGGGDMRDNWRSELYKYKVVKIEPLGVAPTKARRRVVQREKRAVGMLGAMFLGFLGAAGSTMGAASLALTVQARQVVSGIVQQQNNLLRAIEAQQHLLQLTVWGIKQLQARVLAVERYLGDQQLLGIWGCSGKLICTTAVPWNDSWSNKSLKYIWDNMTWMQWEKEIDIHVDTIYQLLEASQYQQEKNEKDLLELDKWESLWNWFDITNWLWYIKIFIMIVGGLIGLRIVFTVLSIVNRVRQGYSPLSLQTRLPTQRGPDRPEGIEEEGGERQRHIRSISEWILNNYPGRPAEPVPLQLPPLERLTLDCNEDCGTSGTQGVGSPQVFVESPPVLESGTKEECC
As a reminder, the IC50 is the concentration at which inhibition is half-maximal. In the case of `COc1ccccc1NS(=O)(=O)c1cccc(N2C(=O)/C(=C\Nc3ccccc3C(=O)O)c3ccccc3C2=O)c1`, the IC50 was 13.1 µM (active).
In the case of `COc1cc(/C=C2\C(=N)N3N=C(S(C)(=O)=O)SC3=NC2=O)ccc1OCCOc1ccccc1C`, the IC50 is 13.7 µM (active).
Regarding `CSc1nnc(-c2ccccc2/N=C/c2c(C)nn(-c3ccc4ccccc4c3)c2O)c(O)n1`, the IC50 was 25.8 µM (active).

Values taken from ChEMBL document CHEMBL1201862, “PubChem BioAssay data set” (2004).
